In patent publication US6537545B1, “Use of corneal hardening agents in enzymeorthokeratology” (ISTA Pharmaceuticals, Inc., priority 1998, dated 2003):

Key:
cornea = assay: Corneal elasticity, recovery from indentation by spherical glass indentor (Example 7); assay type: in vivo, human; conditions: eyes injected with hyaluronidase solution
Procedure: A precision spherical glass indentor was used to contact the corneal surface of subjects treated with the methods of the present invention to measure changes in corneal elasticity. The method used involved the application of the indentor, in the form of a small spherical ball to gently deflect into a test cornea to establish an initial deflection value. Measurements were taken by using an interferometer to view the deflection. Following this application, the relaxation period was measured by observing the change in the impression made by the indentor.
The indentation range of movement was characterized using a precision linear variable differential transducer (LVDT) device that measured the linear travel of a stage carrying the indentor probe. The average travel distance of the probe was established at approximately 700 micrometers. The contact depth of the indentor probe was measured by evaluating the corneal surface immediately after indentation and measuring the local height values caused by the probe contact. This value was measured to range from 266 to 300 micrometers.
A digital timer was used to mark the beginning and ending times during observation. Changes in the impression were readily observed during this period. The final end point was considered to be when the local fringe disturbance was recovered blending with the undisturbed neighboring fringes. […] However, given the time scales involved, the value of this error is considered to be small.
The method of inducing corneal inflection involved first contacting the test corneal with the indentor. After the initial contact with the cornea was established, the probe was moved forward into the cornea to a predetermined distance. Seven hundred microns was used to achieve adequate deflection. Topography was taken immediately after the deflection to record the impression made in the cornea. Observations of the cornea were then made at one (1) minute intervals to note the change in the impression made. […] Another topography was done after five (5) minutes to record the final condition of the impression. […]

[1] = tested on: eye of myopic human patient; assay: Safety and efficacy of hyaluronidase and topical 3% glyceraldehyde solution, myopia in a human patient (Example 8); assay type: in vivo; conditions: one subject, baseline UVA 20/300; 50 IU hyaluronidase, 7 days incubation, 7 days corrective lens wear, before drops
Procedure: In this study, a single subject was selected to test the safety and efficacy of using hyaluronidase and a glyceraldehyde solution to treat sub-optimal visual acuity. In this study, the subject was first medically evaluated and a baseline was established. A medical history of the subject was taken and a detailed examination of the subject's eyes was also performed. The subject's eyes were tested to determine: refraction, cell count, intraocular pressure (IOP), pachymetry, corneal topography and corneal elasticity. A slit-lamp examination was also performed to establish the health of the eyes. Also, the presence of any general or ocular discomfort of the subject was noted.
Following the establishment of a baseline reading (UVA 20/300), the subject was administered a single intrastromal injection of 50 IU hyaluronidase prior to the orthokeratology treatment. Following 7 days of incubation of the subject's eyes with the injected material, the subject was fitted with corrective contact lenses for overnight wear. The subject wore the corrective lenses day and night for a period of seven (7) days. At this point the subject's visual acuity was 20/15. […] The visual acuity of the subject was then monitored for 196 days to determine the effect of the treatment on the unaided visual acuity of the subject;

[2] = tested on: eyes of myopic human subjects; assay: Mild myopia study, group I: 50 IU hyaluronidase, corrective lenses, 3% glyceraldehyde (Example 9); assay type: in vivo; conditions: 50 IU hyaluronidase and corrective lenses
Description: (§1) Given the favorable results obtained in Example 8, an additional study was undertaken to test the safety and efficacy of the method of the present invention using a larger group of subjects. In this study, a group of subjects were selected and randomly separated into three test groups to test the safety and efficacy of using hyaluronidase and a glyceraldehyde solution for treating subjects with sub-optimal visual acuity. Groups one and two received an intrastromal injection of hyaluronidase (50 and 500 IU, respectively), while group three received a control injection of saline.
(§2) Following a two week incubation period after the injection, the three groups were fitted with corrective lenses to optimize the visual acuity of the subjects. The corrective lenses were left in place for a period of time sufficient to alter the shape of the subjects' eyes so as to achieve an optimal visual acuity. This period of time was generally 2 days in length. Once an acceptable visual acuity was achieved, the subjects in the three groups received a topical 3% glyceraldehyde solution in the form of ophthalmic drops four times per day while wearing the corrective lenses. The glyceraldehyde treatment was generally administered for one month. Lens wear occurred from 8 to 12 hours during the day.
(§3) At the end of the treatment period both the lens wear and the glyceraldehyde solution administration was terminated. The general health and visual acuity of the subjects was monitored from 3 to 5 months following treatment termination.
Before beginning the experimental protocol, test subjects were examined initially to establish a baseline from which the future results of the treatment were compared. For each subject a medical history was taken and a detailed examination of the eyes was also performed. The eyes of each subject were tested to determine: refraction cell count, intraocular pressure (IOP), pachymetry, corneal topography and corneal elasticity. A slit-lamp examination was also performed to establish the health of the eye. Also, the presence of any general or ocular discomfort of the subjects was noted.
Following the establishment of a baseline reading, group 1 subjects were administered a single intrastromal injection of 50 IU hyaluronidase prior to the orthokeratology treatment. Following 14 days of incubation, the subjects were fitted with corrective contact lenses for overnight wear. Subjects wore the corrective lenses night and day for a period of two (2) to seven (7) days or until visual 20/20 visual acuity was achieved. Subjects achieving an acceptable visual acuity (approximately 20/20) received an application of the topical 3% glyceraldehyde solution ophthalmic drops four times per day (8:00, 12:00, 16:00, and 20:00) for a period of 1 month in conjunction with daytime lens wear for stabilization. Lens wear lasted for 8 to 12 hours per day. The subjects were examined periodically during the glyceraldehyde treatment to monitor changes in the health of the treated eyes.
(§4) At the end of the treatment period, the stabilizing lens were removed and the administration of the 3% glyceraldehyde solution was terminated. Following termination of the treatment, the subjects were examined immediately after treatment was terminated, once a week for the first four weeks after termination, and then monthly to measure changes in the visual acuity of the treated eyes. The health of the eye was also monitored. Sequelae characterized by the appearance or worsening of serious ocular symptoms or slit-lamp findings observed during these examinations was assessed. The proportions of subjects with such findings were analyzed.

[3] = tested on: eyes of myopic human subjects; assay: Mild myopia study, group II: 500 IU hyaluronidase, corrective lenses, 3% glyceraldehyde (Example 9); assay type: in vivo; conditions: 500 IU hyaluronidase and corrective lenses
Description: as §1, §2, §3
The subjects of group II were treated as those in group I in preparation for their participation in the study reported here. Before beginning the experimental protocol, test subjects were examined initially to establish a baseline from which the future results of the treatment were compared.
Following the establishment of a baseline reading, group II subjects were fitted with contact lenses and wore the corrective lenses at night for a period of two (2) to seven (7) days or until an acceptable visual acuity (approximately 20/20) was achieved. Group II test subjects received 500 IU of hyaluronidase by injection as compared to the 50 IU of group I. Two groups of subjects received 500 IU of hyaluronidase. The results obtained from the first group are shown in Table IIIA and the results from the second group are shown in Table IIIA and are identified in the table by the notation Gr. VI. There were no meaningful differences in the treatment protocols between these two groups. Subjects achieving an acceptable visual acuity received the topical 3% glyceraldehyde solution in the form of ophthalmic drops four times per day (08:00, 12:00, 16:00, and 20:00) for a period of 1 month in conjunction with daytime lens wear for stabilization. During this period, lens were occurred for approximately 8-12 hours per day and there was no nocturnal lens wear.
The subjects were examined periodically during the glyceraldehyde treatment to monitor changes in the health of the treated eyes.
as §4, with “examinations were” for “examinations was”

hyaluronidase
change in corneal elasticity vs baseline (cornea): significant reduction in corneal elasticity
visual acuity [1]: 20/15
visual acuity achieved by initial orthokeratological treatment ([2]; all subjects except ARR/001 and JLV/015, before drops): 20/20
visual acuity achieved by initial orthokeratological treatment ([2]; subject 001, before glyceraldehyde drops): 20/25
visual acuity achieved by initial orthokeratological treatment ([2]; subject 015, before glyceraldehyde drops): 20/40
visual acuity achieved before glyceraldehyde drops ([3]; subject 013 (Table IIIA)): 20/40
visual acuity achieved before glyceraldehyde drops ([3]; subject 104 (Table IIIB)): 20/50
